In patent US10792305B2, “Therapeutic immune modulation using noble gas compositions” (NOBILIS THERAPEUTICS, INC., priority 2015, dated 2020):
Entries after “also recorded” stand apart in the source; their conditions may differ.

Legend:
[1] = system: PTSD; settings: 20 mg/day and 40 mg/day, cited from earlier work
[2] = system: severely disruptive symptoms related to autistic disorder; settings: pentoxifylline titrated to 600 mg/day with risperidone up to 3 mg/day, 10 weeks, versus placebo+risperidone; cited from earlier work
[3] = system: behavioral symptoms of children with ASD; settings: 30 or 60 mg per day p.o. for 3-4 months, 25 children; cited from earlier work
[4] = system: TNF-alpha production from monocytes; assay: Induced TNF-alpha production by monocytes (adherent PBMC), ELISA; assay type: cell-based, human; settings: 30% xenon by volume for 1 or 2 hours; 1 ug/ml LPS and 10 μM amyloid beta peptide Aβ (1-42) for 24 h; supernatant ELISA
Experimental: 10 ml of heparinized blood was extracted from healthy volunteers and peripheral blood mononuclear cells were isolated by centrifugation over a ficoll gradient. Cells were subsequently washed in 2× volume phosphate buffered saline, and resuspended in RPMI media supplemented with 10% fetal calf serum. Cells were incubated at a concentration of 10 million cells per ml in 6-well plates in a volume of 2 ml per well. Cells were cultured for 24 hours at 37 Celsius in a fully humidified atmosphere with 5% CO2, subsequent to which non-adherent cells were removed by washing with PBS. Adherent cells were subsequently divided into […], one plate incubated at normoxic tissue culture, the second plate cultured for 1 hour in 30% xenon by volume, and the third tissue cultured for 2 hours in 30% volume. Cells were treated with control media, 1 ug/ml LPS and 10 μM of amyloid beta peptide Aβ (1-42) for 24 h. Supernatant was collected and assessed for TNF-alpha production by ELISA.

[5] = system: IL-12 production from dendritic cells; assay: Induced IL-12 production by dendritic cells, ELISA; assay type: cell-based, human; settings: CD1c dendritic cells; 1 ug/ml LPS and 10 μM amyloid beta peptide Aβ (1-42) for 24 h; supernatant ELISA
Experimental: Monocytes from adherent PBMC were isolated as described in Example 1. Dendritic cells were generated by 7 day culture in IL-4 (10 ng/ml) and GM-CSF (20 ng/ml). Media was changed every two days. On day 7, purification of CD1c dendritic cells was performed and cells were cultured in control media, 1 ug/ml LPS and 10 μM of amyloid beta peptide Aβ (1-42) for 24 h. Supernatant was collected and assessed for IL-12 production by ELISA.

Fc1ccc([C@@H]2CCNC[C@H]2COc2ccc3c(c2)OCO3)cc1 [paroxetine]
improvement on primary outcome measures compared to placebo ([1]; intent-to-treat analysis): significantly greater improvement | PTSD symptom clusters (reexperiencing, avoidance/numbing, hyperarousal), social and occupational impairment, comorbid depression ([1]; versus placebo): statistically significant improvement compared to placebo | tolerability [1]: well tolerated

CC(=O)CCCCn1c(=O)c2c(ncn2C)n(C)c1=O [pentoxifylline]
ABC-C subscale scores (Irritability, Lethargy/Social Withdrawal, Stereotypic Behavior, Hyperactivity/Noncompliance, Inappropriate Speech) [2]: greater reduction in ABC-C subscale scores

CCc1ccc(CCOc2ccc(CC3SC(=O)NC3=O)cc2)nc1 (stereo not shown) [pioglitazone]
adverse events [3]: without adverse events

[Xe] [xenon gas, xenon]
induced TNF-alpha production (FIG. 1) [4]: suppression of induced TNF-alpha production was observed; also recorded: suppression of inducible TNF-alpha production | induced IL-12 production (FIG. 2) [5]: suppression of induced IL-12 production was observed; also recorded: suppression of inducible IL-12 production
